This is an account of results in DBAASP.

≈ marks a conversion by molar mass, not a printed value. Bounds are passed on as bounds.

Among the test systems are Escherichia coli SPE 001; Alternaria alternata; Botrytis cinerea; Cladosporium herbarum; Escherichia coli BL2.
What all share (assay): ≥ marks a high value that may be exact or a test limit, other limits are often not marked, values filed in µg/mL are converted to µM
Experiment [1] concerns Escherichia coli ATCC 11219.
The test system of experiment [2] is Klebsiella pneumoniae ATCC 10031.
For experiment [3], the system named is Pseudomonas aeruginosa ATCC 13388.
The subject of experiment [4] is Salmonella enterica subsp. enterica serovar Typhimurium ATCC 14028.
Experiment [5] has as its system Staphylococcus aureus ATCC 6538.
The subject of experiment [6] is Candida albicans ATCC 90028.
The subject of experiment [7] is Pseudomonas aeruginosa ATCC 9027.
Experiment [8] has as its system Staphylococcus aureus NBRC 100910.
Experiment [9] relates to Staphylococcus aureus SPM 101.
Experiment [10] relates to Staphylococcus aureus USA 100.
Experiment [11] has as its system Staphylococcus aureus USA 300.
Experiment [12] concerns Clavibacter michiganensis subsp. michiganensis DSM 46294.
Experiment [13] deals with Pectobacterium carotovorum subsp. carotovorum DSM 30168.
Experiment [14] has as its system Pseudomonas corrugata DSM 7228.
Experiment [15] concerns Pseudomonas syringae pv. syringae DSM 10604.
For experiment [16], the system named is Pseudomonas syringae pv. tomato DC3000.
Experiment [17] concerns Xanthomonas vesicatoria DSM 50861.
For experiment [18], the system named is Aeromonas hydrophila CGMCC 1.0927.
The test system of experiment [19] is Corynebacterium glutamicum CGMCC 1.1886.
Experiment [20] has as its system Escherichia coli ATCC 25922.
Experiment [21] has as its system Staphylococcus aureus CGMCC 1.0363.
In experiment [22] the test system is Vibrio alginolyticus CGMCC 1.1833.
For experiment [23], the system named is Vibrio parahaemolyticus CGMCC 1.1615.
Experiment [24] has as its system Staphylococcus aureus 90857.
Experiment [25] has as its system Acinetobacter baumannii ATCC 15308.
Experiment [26] concerns Enterococcus faecium ATCC 19434.
Experiment [27] relates to Micrococcus luteus ATCC 7468.
The test system of experiment [28] is Pseudomonas sp. ATCC 15915.
The subject of experiment [29] is Staphylococcus aureus ATCC 502A.
Experiment [30] deals with Listeria monocytogenes DBFIQ LM3.
Experiment [31] relates to Staphylococcus aureus DBFIQ S21.

A word on the MIC: it is the lowest concentration found to suppress growth. Take `CC[C@H](C)[C@H](NC(=O)CN)C(=O)N[C@@H](CCCN=C(N)N)C(=O)N[C@@H](CCCN=C(N)N)C(=O)N[C@H](C(=O)N[C@@H](CC(C)C)C(=O)N[C@@H](CCCN=C(N)N)C(=O)N[C@@H](Cc1ccc(O)cc1)C(=O)NCC(=O)N[C@@H](CCCN=C(N)N)C(=O)N[C@@H](CCCN=C(N)N)C(=O)N[C@@H](CO)C(N)=O)[C@@H](C)CC` [GIRRILRYGRRS]: the MIC in [1] amounted to 3 µM (≈ 4.51 µg/mL); in experiment [2], 5 µM (≈ 7.51 µg/mL); in [3], 20 µM (≈ 30 µg/mL); in experiment [4], 10 µM (≈ 15 µg/mL); in [5], 10 µM (≈ 15 µg/mL).
Turning to `CC(C)C[C@H](NC(=O)[C@H](CCCCN)NC(=O)[C@H](CC(C)C)NC(=O)[C@H](CC(C)C)NC(=O)[C@H](CC(C)C)NC(=O)[C@H](CCCCN)NC(=O)[C@H](CC(C)C)NC(=O)[C@@H](N)CCCCN)C(=O)N[C@@H](CCCCN)C(N)=O` [KLKLLLKLK], the MIC in experiment [6] was no less than 100 µM; in the experiment on Escherichia coli SPE 001, 7.3 µM (≈ 7.99 µg/mL); in [7] it was 12.5 µM (≈ 13.7 µg/mL); in experiment [8] it was no less than 117 µM; in experiment [9], 1.82 µM (≈ 2 µg/mL); in [10] it was no less than 50 µM. This molecule yielded an MIC in [11] of no less than 50 µM.
On to `CC(C)C[C@H](NC(=O)[C@H](C)NC(=O)CNC(=O)[C@H](CCCN=C(N)N)NC(=O)[C@H](Cc1ccccc1)NC(=O)[C@H](C)NC(=O)[C@H](CCCN=C(N)N)NC(=O)[C@H](Cc1ccccc1)NC(=O)[C@H](C)NC(=O)[C@H](C)NC(=O)[C@H](CC(C)C)NC(=O)[C@H](CCCN=C(N)N)NC(=O)[C@H](CCCN=C(N)N)NC(=O)[C@@H](N)CCCCN)C(=O)N[C@@H](CCCCN)C(=O)N[C@@H](CO)C(=O)N[C@H](C(=O)N[C@@H](CC(C)C)C(=O)N[C@@H](CCCCN)C(=O)N[C@@H](CCCCN)C(N)=O)C(C)C` [KRRLAAFRAFRGALKSVLKK], for which the MIC is no less than 43.2 µM with Alternaria alternata; no less than 43.2 µM against Botrytis cinerea; 8.63 µM (≈ 20 µg/mL) with Cladosporium herbarum; 2.16 µM (≈ 5 µg/mL) in [12]; 17.3 µM (≈ 40 µg/mL) in [13]; 1.08 µM (≈ 2.5 µg/mL) in experiment [14]. Besides, the MIC in experiment [15], in experiment [16] and in experiment [17] was 2.16 µM (≈ 5 µg/mL) throughout.
As for `CSCC[C@H](NC(=O)[C@H](CO)NC(=O)[C@H](CC(C)C)NC(=O)[C@H](Cc1cnc[nH]1)NC(=O)[C@H](CO)NC(=O)[C@@H](N)CCC(N)=O)C(=O)N[C@H]1CSSC[C@@H](C(=O)N[C@@H](CCCN=C(N)N)C(=O)N[C@@H](Cc2ccccc2)C(=O)O)NC(=O)[C@@H]2CSSC[C@@H]3NC(=O)[C@@H]4CSSC[C@H](NC(=O)[C@H](C(C)C)NC(=O)[C@H](CO)NC1=O)C(=O)N[C@@H](CSSC[C@H](NC(=O)CNC(=O)[C@H](CCCCN)NC(=O)[C@H](Cc1ccc(O)cc1)NC(=O)[C@H](CC(N)=O)NC(=O)[C@H](CCCCN)NC3=O)C(=O)NCC(=O)N[C@@H](Cc1ccccc1)C(=O)N2)C(=O)N[C@@H](CC(N)=O)C(=O)N4` [QSHLSMCSVCCNCCKNYKGCGFCCRF], the MIC in [18] is 12 µM (≈ 35 µg/mL); in experiment [19], 12 µM (≈ 35 µg/mL); in experiment [20], 24 µM (≈ 70 µg/mL); in [21], 12 µM (≈ 35 µg/mL); in [22], no less than 48 µM; in experiment [23], no less than 48 µM.
Consider `CC[C@H](C)[C@H](NC(=O)[C@@H](NC(=O)[C@H](CCCCN)NC(=O)[C@H](CCCCN)NC(=O)[C@@H](NC(=O)[C@@H](NC(=O)[C@H](CCCCN)NC(=O)[C@@H](NC(=O)[C@H](CCCCN)NC(=O)[C@H](CCCCN)NC(=O)[C@H](CCCCN)NC(=O)[C@@H](N)CCCN=C(N)N)[C@@H](C)CC)[C@@H](C)CC)[C@@H](C)CC)[C@@H](C)CC)C(N)=O` [RKKKIKIIKKII], for which the MIC is 1.66 µM (≈ 2.5 µg/mL) in experiment [12]; 6.63 µM (≈ 9.99 µg/mL) in experiment [13]; 3.31 µM (≈ 5 µg/mL) in experiment [14]; 0.331 µM (≈ 0.5 µg/mL) in experiment [15]; 3.31 µM (≈ 5 µg/mL) in experiment [16]; no less than 62.5 µM in experiment [24]. In experiment [17], the MIC was found to be 1.66 µM (≈ 2.5 µg/mL).
With `CC[C@H](C)[C@H](NC(=O)[C@H](C)NC(=O)[C@H](CCCN=C(N)N)NC(=O)[C@H](CCSC)NC(=O)[C@H](C)NC(=O)[C@@H](NC(=O)[C@@H](N)[C@@H](C)O)[C@@H](C)CC)C(=O)N[C@@H](CC(N)=O)C(=O)N[C@@H](CC(N)=O)C(=O)N[C@@H](Cc1ccc(O)cc1)C(=O)N[C@@H](CCCN=C(N)N)C(=O)N[C@@H](Cc1c[nH]c2ccccc12)C(=O)N[C@@H](CCCN=C(N)N)C(=O)N[C@@H](CO)C(=O)N[C@@H](CCCCN)C(=O)N[C@@H](CC(N)=O)C(=O)N[C@@H](CCC(N)=O)C(=O)N[C@@H](CC(N)=O)C(=O)N[C@H](C(=O)N[C@@H](Cc1ccccc1)C(=O)N[C@@H](CC(C)C)C(=O)N[C@@H](CCCN=C(N)N)C(=O)O)[C@@H](C)O` [TIAMRAINNYRWRSKNQNTFLR], the MIC stood at 1.1 µM (≈ 3.03 µg/mL) in [25]; 7 µM (≈ 19.3 µg/mL) in experiment [26]; 7 µM (≈ 19.3 µg/mL) in the experiment with Escherichia coli BL2; 7 µM (≈ 19.3 µg/mL) in experiment [27]; 7 µM (≈ 19.3 µg/mL) in experiment [28]; 1.5 µM (≈ 4.13 µg/mL) in experiment [29].
Consider `CC[C@H](C)[C@H](NC(=O)[C@H](C)NC(=O)[C@@H](NC(=O)[C@H](C)NC(=O)CNC(=O)[C@H](CCSC)NC(=O)[C@H](CCC(N)=O)NC(=O)[C@H](CC(C)C)NC(=O)[C@H](CO)NC(=O)[C@@H](N)Cc1ccc(O)cc1)[C@@H](C)O)C(=O)N[C@@H](CCCCN)C(=O)N[C@@H](CCC(N)=O)C(=O)N[C@H](C(=O)N[C@@H](CCCCN)C(=O)N[C@@H](CCCCN)C(=O)N[C@@H](CC(C)C)C(=O)N[C@@H](Cc1ccccc1)C(=O)N[C@@H](CCCCN)C(=O)N[C@@H](CCCCN)C(=O)N[C@@H](CCCCN)C(=O)NCC(=O)NCC(N)=O)C(C)C` [YSLQMGATAIKQVKKLFKKKGG], for which the MIC came out at 1.7 µM (≈ 4.12 µg/mL) in [30] and 6.6 µM (≈ 16 µg/mL) in [31].
